Tests used:
EAAU rats = experiment: Experimental autoimmune anterior uveitis (EAAU) in rats; format: in vivo, rat
Protocol: Male Lewis rats (180-200 g) were immunized by a single left hind-footpad injection with 150, μg (in 100 μL) of purified MAA complex from bovine eye. MAA proteins were suspended in phosphate-buffered saline (PBS, pH7.2) and emulsified (1:1 v/v) in complete Freund's adjuvant (CFA, VWR Scientific) containing 1 μg/100 μl of Pertussis Toxin (PTx) emulsion mixture. Control animals were injected with PBS emulsified with CFA and PTx.
Assessment of intraocular inflammation was conducted starting day 7 after immunization, Animals were examined every other day between day 7 and 19 post-immunization for clinical signs and symptoms of uveitis using slit lamp microscopy. Aqueous humor was collected to evaluate the number of inflammatory cells and protein levels. Cell counts were done with 10 ul with a hemocytometer under the light microscope. Protein concentration was measured with a Protein assay solution from Bio-Rad, using BSA as the protein standard. Pro-inflammatory cytokine and chemokine levels were measured on Luminex (Biosource-Invitrogen, Carlsbad, Calif.). Blood, spleen, and eyes were harvested on days 11, 14, and 19 to determine blood leukocyte differentiation, splenic T cell activation status via Flow cytometry, as well as histopathology.

tear TNF-alpha and IL17 = experiment: Dry eye desiccating stress in mice, adoptive transfer of CD4+ T cells, recipient tear cytokines; format: in vivo; conditions: donor mice treated 3 mg/kg/day for 10 days during desiccating stress; CD4+ T cells transferred to nude mice, FIG. 11
Excerpt: C57BL/6 (C57BL/6NTac) and B6.Cg/NTac-Foxn1nuNE9 were purchased from Taconic, Inc. (Germantown, N.Y.). Mice were used at 6-10 weeks of age. Animal studies approval was obtained from the Allergan Animal Care and Use Committee. All studies adhered to the Association for Research in Vision and Ophthalmology statement for the Use of Animals in Ophthalmic and Vision Research. As described in the literature dry eye was induced by treating mice with subcutaneous injections of scopolamine hydrobromide (0.5 mg/0.2 ml; Sigma-Aldrich, St. Louis, Mo.) three times a day alternating between the left and right flanks (Neiderkorn et al, 2006). […] Histological analysis was done by staining […] samples with antibody to CD4 and H&E staining to quantify goblet cells and T cells in the conjunctiva. […]
The levels of cytokines were measured with a sensitive, fluorescent multiplex immunobead assay (Luminex; Biosource-Invitrogen, Carlsbad, Calif.). […] Cytokine levels in samples were analyzed by using the corresponding Millipore cytokine Beadmate pairs. […] Beads were washed, resuspended in 125 μl of Beadlyte buffer, and analyzed by Luminex 100 instrument (Luminex Corporation, Austin, Tex.). The mean fluorescence intensities obtained from 50 beads per cytokine minimum were analyzed using Upstate Beadview software. […]

EIU rats = experiment: Endotoxin-induced uveitis (EIU) in rats; format: in vivo, rat
Protocol: Female Lewis rats (180-200 grams) were purchased from Charles River Laboratory. Rats were footpad-injected (hind left side) with either 100 μl of 1 mg/ml LPS (Sigma) solution (in sterile pyrogen-free saline) or 150 μl of sterile pyrogen-free saline. Animals were sacrificed at 24 hours following LPS injection. Aqueous humor was collected and analyzed to determine inflammatory cell counts, levels of cytokines and chemokine concentration as well as total protein concentrations. Blood leukocyte differentiation and histopathology were also determined if required.

## CCC1=CC(Cc2c[nH]cn2)CCC1 (centres unmarked) [Compound B]
EAAU rats; 1 mg/kg/day from days 1-18 or days 7-18 following EAAU induction (3 days oral TID then osmotic minipump)
  anterior inflammation: effective in partially abrogating
EAAU rats; EAAU rats
  CD4+ T cell population in the spleen: normalized
  lymphocyte populations in the blood: normalized
  neutrophil cell counts in the blood: decreased
EAAU rats; EAAU rats, FIG. 8
  clinical scores of anterior uveitis: decreased
  inflammatory cell numbers in the aqueous humor: decreased
Tear TNF-alpha and IL17
  recipient tear level of IL-17: significantly reduced
  recipient tear level of TNFα: significantly reduced
EIU rats; 1 mg/kg/day by osmotic minipump, vs untreated or vehicle-treated (saline) controls, FIG. 9
  protein exudation in the aqueous humor: significantly inhibited
EIU rats; FIG. 10
  decrease on blood lymphocyte populations as a result of LPS stimulation: significantly normalized
  increase in blood neutrophils as a result of LPS stimulation: significantly normalized

— US10251865B2, “Method of activating regulatory T cells with alpha-2B adrenergic receptor agonists” (Allergan, Inc., priority 2010, dated 2019)
